{
  "source": "patent US7195900B2",
  "about": "“Cloning and expression of D-amino acid oxidase from arthrobacter protophormiae” (Degussa AG, priority 2002, dated 2007)",
  "molecules": {"B1": {"name": "partly purified D-AAO (Glutamicibacter protophormiae) (protein)", "chain": "MPTAPLRITVIGSGVIGLSAAHELAAAGHQVTVAYDQELAECVSSVAAAIWFPYHSENSPAADKLLADSLARFEQLSEHPETGIDLRRGLNVDHLPGADRSWTRIVAGTEEASPADLPDGAHAGVWATVPIITMSTYLGWLRGRVEELGADFAKGTVTDLAQLKGGADLVVLAAGLRGGELLGDDDTVYPIRGQVVRLANTKNLTQWLCDDNYPDGVSYIIPRREDIIVGGTDTANDWNREVEPQTSIDILERAAKLVPELEGLEVLEHKVGLRPARETIRLEHVAGHPLPVIAAYGHGGAGVTLSWGTAQRVAELAAQLAGEPAS"}},
  "key": {"recombinant D-AAO": {"target": "T1, recombinant D-AAO (Glutamicibacter protophormiae, UniProt Q7X2D3)", "T1 construct": "The restriction sites NdeI and BamHI were attached to the dao gene by PCR; made in house; host or cells: E. coli BL21(DE3)", "test": "Substrate specificity of the recombinant D-AAO (photometric peroxidase/o-dianisidine test)", "format": "biochemical, Arthrobacter protophormiae", "conditions": "for Substrate quality (in words): partial substrate spectrum, Table 2; for activity at 10000 µM / activity at 20000 µM: read-out: Relative activity; for activity at 20000 µM: DL-amino acid, concentration increased to 20 mM; for Stereoselectivity: conversion of L-amino acids by D-AAO: L-amino acids as substrate", "experimental": "(§1) To isolate D-AAO-forming microorganisms, soil samples were plated out on a nutrient medium in which coryneform bacteria can be concentrated: Na propionate 0.20 g; KNO3 0.01 g; KH2PO4 0.10 g; NaCl 0.25 g; MgSO4.7 H2O 0.10 g; CaCO3 0.02g; trace elements; vitamin solution; cycloheximide 0.05 g; if appropriate, agar 20.00 g; final pH 7.0. Microorganisms which grew on this medium were then transinoculated into a complex medium (DSM 65) with the following composition (per 1l): glucose 4.00 g; yeast extract 4.00 g; malt extract 10.00 g; agar 20 g; final pH 7.2. The strains were then multiplied in liquid medium (DSM 65), harvested by centrifugation, broken down, and the cell-free supernatant was obtained by centrifugation (=crude extract). This crude extract was then employed as an enzyme source for the photometric test for D-AAO activity. The test batch contained: 20 μl amino acid solution (100 mM); 80 μl TEA/o-dianisidine buffer; 10 μl peroxidase soln. (1,000 U/ml); 70 μl H2O; 20 μl crude extract. The measurement was carried out at 436 nm; 1 U corresponds to an amount of enzyme which converts 1 μmol of amino acid or 1 μmol of o-dianisidine per min (extinction coefficient ε for o-dianisidine=8.1 mM^−1 cm^−1).\nA partial substrate spectrum was recorded for D-AAO (Table 2).\nThe stereoselectivity of the D-AAO was tested with the amino acids L-leucine, L-methionine and L-lysine. […] Thus, the D-AAO from Arthrobacter protophormiae can be described as highly stereoselective for D-amino acids."}, "partly purified D-AAO": {"target": "T2, partly purified D-AAO (Glutamicibacter protophormiae, UniProt Q7X2D3)", "T2 sequence (Q7X2D3 1-326)": "B1 chain", "test": "biochemical", "conditions": "read-out: Substrate excess inhibition K1", "experimental": "as §1"}, "[1]": {"substrate": "CSCC[C@@H](N)C(=O)O", "test": "purified protein, by the assay type", "conditions": "other: partly purified D-AAO"}, "[2]": {"test": "Isoelectric focussing of D-AAO", "format": "physicochemical", "conditions": "experimentally determined, polyacrylamide gels pH 4–6", "experimental": "A molecular mass for a monomer of the D-AAO of 40 kDA was determined by means of SDS gel electrophoresis. […] The calculated molecular mass of the monomer was 34.6 kDa without and 35.4 kDa with FAD. These values indicate that the enzyme has a dimeric structure. Isoelectric focussing was performed using precast Serva polyacrylamide gels with a narrow pH range (pH 4–6). The experimentally determined pI was 4.4."}, "[3]": {"test": "D-AAO activity assay (specific activity of enzyme preparations)", "format": "biochemical", "experimental": "as §1\nRecombinant D-AAO was purified to homogeneity using a two-step procedure (Table 1). E. coli BL21(DE3) carrying pApdao was disrupted by ultrasonification and cell debris was removed by centrifugation. The cleared supernatant was loaded onto a Q-Sepharose FF column (h 10 cm×Ø 2.6 cm) (Amersham Bioscience), which was equilibrated with 10 mM potassium phosphate buffer pH 7.0 and run at a flow rate of 2 ml/min. The column was washed with 10 mM potassium phosphate buffer pH 7.0 containing 0.2 M NaCl and the D-AAO was eluted by increasing the salt concentration up to 0.35 M. Active fractions were pooled and loaded onto a column, which was packed with ceramic MacroPrep hydroxyapatite, type I (h 8.3 cm×Ø 1.6 cm) (Bio-Rad). The column was equilibrated with 10 mM potassium phosphate buffer pH 6.8 containing 150 mM NaCl and the flow rate was 2 ml/min. The D-AAO was detected in the flow-through."}, "D-AAO": {"target": "T3, D-AAO (Glutamicibacter protophormiae, UniProt Q7X2D3)", "T3 sequence (Q7X2D3 whole entry, looked up)": "B1 chain", "test": "Influence of pH on D-AAO activity", "format": "biochemical, Arthrobacter protophormiae", "conditions": "three substrates (lysine, phenylalanine, methionine), 10 mM; three 80 mM buffers", "experimental": "The enzyme activity was measured with three different substrates in the following 80 mM buffers: ♦ citric acid-sodium phosphate, pH 5–7; ▪ TEA/HCl, pH 7–8.5; ▴ glycine/NaOH, pH 8.5–11. Each D-amino acid tested was employed in a final concentration of 10 mM.\nThe influence of pH on the activity of the D-AAO with respect to the substrates […] was investigated in three different buffers: citric acid-sodium phosphate […]; TEA/HCl pH 7.0–8.5; and glycine/NaOH pH 8.5–11). The optimum pH for all three substrates was in the weakly basic range, between pH 7.5–8.5 (FIG. 2)."}},
  "data": [
    {"molecule": "N=C(N)NCCC[C@@H](N)C(=O)O", "note": "[D-Arginine]", "values": [
      {"measurement": "Substrate quality (in words)", "setting": "recombinant D-AAO", "value": "effective in converting"},
      {"measurement": "activity at 10000 µM", "setting": "recombinant D-AAO", "value": 80, "unit": "%"}
    ]},
    {"molecule": "CNC(CC(C)C)C(=O)O", "note": "(racemic) [N-Methyl-DL-leucine]", "values": [
      {"measurement": "activity at 20000 µM", "setting": "recombinant D-AAO", "value": 2.1, "unit": "%"}
    ]},
    {"molecule": "NCCCC[C@H](N)C(=O)O", "note": "[L-lysine]", "values": [
      {"measurement": "Stereoselectivity: conversion of L-amino acids by D-AAO", "setting": "recombinant D-AAO", "value": "None of these compounds were converted"}
    ]},
    {"molecule": "CSCC[C@@H](N)C(=O)O", "note": "[D-Methionine]", "values": [
      {"measurement": "Substrate quality (in words)", "setting": "recombinant D-AAO", "value": "best substrates"},
      {"measurement": "activity at 10000 µM", "setting": "recombinant D-AAO", "value": 100, "unit": "%"}
    ]},
    {"molecule": "NCCCC[C@@H](N)C(=O)O", "note": "[D-Lysine]", "values": [
      {"measurement": "Substrate quality (in words)", "setting": "recombinant D-AAO", "value": "best substrates"},
      {"measurement": "activity at 10000 µM", "setting": "recombinant D-AAO", "value": 99, "unit": "%"}
    ]},
    {"molecule": "C[C@@H](N)C(=O)O", "note": "[D-Alanine]", "values": [
      {"measurement": "activity at 10000 µM", "setting": "recombinant D-AAO", "value": 0.26, "unit": "%"}
    ]},
    {"molecule": "CC(C)C[C@H](N)C(=O)O", "note": "[L-leucine]", "values": [
      {"measurement": "Stereoselectivity: conversion of L-amino acids by D-AAO", "setting": "recombinant D-AAO", "value": "None of these compounds were converted"}
    ]},
    {"molecule": "COCC(N)C(=O)O", "note": "(racemic) [O-Methyl-DL-serine]", "values": [
      {"measurement": "activity at 20000 µM", "setting": "recombinant D-AAO", "value": 0.33, "unit": "%"}
    ]},
    {"molecule": "N[C@H](Cc1c[nH]cn1)C(=O)O", "note": "[D-Histidine]", "values": [
      {"measurement": "activity at 10000 µM", "setting": "recombinant D-AAO", "value": 5.9, "unit": "%"}
    ]},
    {"molecule": "CC(C)(C)C(N)C(=O)O", "note": "(racemic) [DL-tert-Leucine]", "values": [
      {"measurement": "activity at 20000 µM", "setting": "recombinant D-AAO", "value": 0.12, "unit": "%"}
    ]},
    {"molecule": "CSCC[C@H](N)C(=O)O", "note": "[L-methionine]", "values": [
      {"measurement": "Stereoselectivity: conversion of L-amino acids by D-AAO", "setting": "recombinant D-AAO", "value": "None of these compounds were converted"}
    ]},
    {"molecule": "CC(C)C[C@@H](N)C(=O)O", "note": "[D-Leucine]", "values": [
      {"measurement": "activity at 10000 µM", "setting": "recombinant D-AAO", "value": 12, "unit": "%"}
    ]},
    {"molecule": "CC[C@H](C)[C@@H](N)C(=O)O", "note": "[D-allo-Isoleucine]", "values": [
      {"measurement": "activity at 10000 µM", "setting": "recombinant D-AAO", "value": 1, "unit": "%"}
    ]},
    {"molecule": "N[C@H](Cc1ccccc1)C(=O)O", "note": "[D-Phenylalanine]", "values": [
      {"measurement": "Substrate quality (in words)", "setting": "recombinant D-AAO", "value": "effective in converting"},
      {"measurement": "activity at 10000 µM", "setting": "recombinant D-AAO", "value": 54, "unit": "%"},
      {"measurement": "Ki", "setting": "partly purified D-AAO", "value": 55, "unit": "mM"}
    ]},
    {"molecule": "CC(C)[C@@H](N)C(=O)O", "note": "[D-Valine]", "values": [
      {"measurement": "activity at 10000 µM", "setting": "recombinant D-AAO", "value": 0.35, "unit": "%"}
    ]},
    {"molecule": "O=C(O)[C@H]1CCCN1", "note": "[D-Proline]", "values": [
      {"measurement": "activity at 10000 µM", "setting": "recombinant D-AAO", "value": 0.25, "unit": "%"}
    ]},
    {"molecule": "NC(Cc1ccc(F)cc1)C(=O)O", "note": "(racemic) [4-Fluoro-DL-phenylalanine]", "values": [
      {"measurement": "activity at 20000 µM", "setting": "recombinant D-AAO", "value": 81, "unit": "%"}
    ]},
    {"molecule": "B1", "values": [
      {"measurement": "Km", "setting": "[1]", "value": 900, "unit": "µM"},
      {"measurement": "pI", "setting": "[2]", "value": 4.4},
      {"measurement": "Specific activity", "setting": "[3]; after Hydroxyapatite (second chromatography), 10 mM D-Met, pH 7.6, 30° C.", "value": 180, "unit": "U/mg"},
      {"measurement": "Specific activity", "setting": "[3]; after Q-Sepharose, 10 mM D-Met, pH 7.6, 30° C.", "value": 80, "unit": "U/mg"},
      {"measurement": "Specific activity", "setting": "[3]; after high cell density fermentation of E. coli BL21(DE3) carrying pE1D", "value": 15, "unit": "U mg^−1"},
      {"measurement": "Specific activity", "setting": "[3]; crude extract, E. coli BL21(DE3), 3 g cells, 10 mM D-Met, pH 7.6, 30° C.", "value": 30, "unit": "U/mg"},
      {"measurement": "Specific activity in the crude extracts of recombinant cells", "setting": "[3]; crude extracts of recombinant cells", "value": "15–30 U mg^−1"},
      {"measurement": "Specific D-AAO activity in the crude extract", "setting": "[3]; shaking flask, E. coli BL21(DE3) pE1D, 100 μM IPTG, 4 h at 30° C.", "value": 30, "unit": "U/mg"},
      {"measurement": "Optimum pH", "setting": "D-AAO", "value": "7.5–8.5 pH"}
    ]}
  ]
}
